These results are taken from paper PMC6572293, “Antihypertensive Effects of Corn Silk Extract and Its Novel Bioactive Constituent in Spontaneously Hypertensive Rats: The Involvement of Angiotensin-Converting Enzyme Inhibition” (Molecules, 2019).

Broadly, the IC50 is the concentration that inhibits the measured activity by half.

Where two headings read alike, the source gives them in different places. Peptide text beside a SMILES is read from it.

The target of test [1] is T1, ACE (serum) (Mus musculus, UniProt P09470).
T1 construct: Mouse sera collected from normal BALB/c mice were used as the source of soluble somatic ACE; from tissue; host or cells: serum of normal BALB/c mice
T1 sequence (P09470 35-1237 limits assumed): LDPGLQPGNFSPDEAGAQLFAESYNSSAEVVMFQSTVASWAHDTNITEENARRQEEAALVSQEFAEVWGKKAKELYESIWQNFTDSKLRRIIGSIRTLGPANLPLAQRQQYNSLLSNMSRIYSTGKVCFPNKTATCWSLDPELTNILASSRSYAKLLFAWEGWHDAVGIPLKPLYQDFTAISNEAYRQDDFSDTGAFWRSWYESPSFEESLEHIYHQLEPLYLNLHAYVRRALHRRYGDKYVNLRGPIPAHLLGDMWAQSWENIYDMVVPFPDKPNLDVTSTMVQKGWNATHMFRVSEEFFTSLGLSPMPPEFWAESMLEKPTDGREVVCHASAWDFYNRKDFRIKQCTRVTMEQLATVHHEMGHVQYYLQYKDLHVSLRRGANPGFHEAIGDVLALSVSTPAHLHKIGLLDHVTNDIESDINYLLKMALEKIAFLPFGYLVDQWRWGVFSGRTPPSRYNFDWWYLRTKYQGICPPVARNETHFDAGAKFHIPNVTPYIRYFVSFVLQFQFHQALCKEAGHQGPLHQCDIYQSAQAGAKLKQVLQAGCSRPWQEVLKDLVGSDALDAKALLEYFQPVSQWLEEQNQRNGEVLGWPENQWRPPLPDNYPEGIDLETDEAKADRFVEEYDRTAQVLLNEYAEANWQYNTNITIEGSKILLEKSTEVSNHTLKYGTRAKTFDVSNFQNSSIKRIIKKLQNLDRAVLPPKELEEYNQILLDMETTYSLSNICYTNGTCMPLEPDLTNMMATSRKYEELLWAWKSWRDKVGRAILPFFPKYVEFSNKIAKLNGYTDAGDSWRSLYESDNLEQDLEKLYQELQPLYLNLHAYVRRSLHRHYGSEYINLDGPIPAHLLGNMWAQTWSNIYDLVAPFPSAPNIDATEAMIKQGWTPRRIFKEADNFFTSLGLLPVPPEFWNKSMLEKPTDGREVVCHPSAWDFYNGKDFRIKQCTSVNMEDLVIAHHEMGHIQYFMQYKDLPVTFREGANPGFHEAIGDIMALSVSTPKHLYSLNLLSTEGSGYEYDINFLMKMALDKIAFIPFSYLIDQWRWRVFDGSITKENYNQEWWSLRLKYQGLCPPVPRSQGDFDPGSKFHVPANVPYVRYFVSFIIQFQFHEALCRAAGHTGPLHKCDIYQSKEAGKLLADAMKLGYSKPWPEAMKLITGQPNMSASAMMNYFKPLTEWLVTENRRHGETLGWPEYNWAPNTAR
The test can be described thus: ACE activity assay, Z-FHL substrate. It is filed as biochemical, mouse (BALB/c serum). The note with it: various concentrations. The procedure: (§1) Various amounts of CSBp5 were mixed with mouse sera in the presence of H-HL or Z-FHL substrate, and the ACE activity was determined by measuring the fluorescence-labeled hydrolyzed substrates.
(§2) ACE activity assay was performed as described previously with a slight modification. Mouse sera collected from normal BALB/c mice were used as the source of soluble somatic ACE. ACE activity in mouse serum was determined as described previously. […] To correct the intrinsic fluorescence of mouse serum, blank was performed according to the aforementioned procedures without inhibitors.

For test [2], the system named is SHRs. The test can be described thus: Tail diastolic blood pressure in spontaneously hypertensive rats. It is filed as in vivo, rat (male SHR). As to conditions: SHR, oral, various dosages of CSBp5, 0 and 1 h; n = 6. The procedure:
Male SHRs (200–250 g, 10 week-old) were purchased from National Laboratory Animal Center (Taipei, Taiwan). Rats were maintained under a 12 h day/12 h night cycle and had free access to water and food. Rat experiments were conducted under ethics approval from China Medical University Animal Care and Use Committee (Permit No. 104-75-N).
(§3) SHRs with tail SBP ≥ 180 mmHg were randomly divided into five groups with six rats per group. Rats were given intraperitoneally or orally with 400 μL of distilled water (blank), captopril (Catalog No. C4042), or various dosages of CSE or peptide (dissolved in water). SBP was measured by a tail-cuff apparatus (Non-Invasive Blood Pressure System, Panlab, Barcelona, Spain). Rats were placed in a warm holder kept at 37 ± 1 °C for 10 min before the measurement. Changes in SBP were calculated by subtracting SBP at indicated time point from SBP at 0 h.
Antihypertensive Effects of Corn Silk Extract and
Its Novel Bioactive Constituent in Spontaneously
Hypertensive Rats: The Involvement of
Angiotensin-Converting Enzyme Inhibition
Chia-Cheng Li 1, Yu-Chen Lee 2,3, Hsin-Yi Lo 1, Yu-Wen Huang 4, Chien-Yun Hsiang 5,* and […]
μmol/kg captopril or various dosages of CSBp5. Tail diastolic blood pressure was measured
at 0 and 1 h. Data are expressed as diastolic blood pressure (mmHg) (top panel) or changes in […]

For test [3], the system named is spontaneously hypertensive rats (SHRs). Nature of the test: Tail-cuff systolic blood pressure in spontaneously hypertensive rats. It is filed as in vivo, rat (male SHR). As to conditions: SHR; for Decrease of SBP, intraperitoneal: 1 h after injection. As to the method: as §3, with “Male SHRs (200–250 g, 10 week-old) were purchased from National Laboratory Animal Center (Taipei, Taiwan). Rats were maintained under a 12 h day/12 h night cycle and had free access to water and food. Rat experiments were conducted under ethics approval from China Medical University Animal Care and Use Committee (Permit No. 104-75-N). SHRs” for “SHRs”

For test [4], the target named is T1, ACE (serum). The test can be described thus: ACE activity assay, H-HL substrate. It is filed as biochemical, mouse (BALB/c serum). The procedure: as §1, §2
The test system of a further test is ACE N-domain. The note with it: ACE N-domain selective inhibitor; cited from earlier work. The source says:
Somatic ACE is composed of two similar catalytic domains (N- and C-domains).

Test [5] relates to healthy human subjects and animals. The note with it: exogenously administered angiotensin I, no reference given; cited from earlier work. The source says:
CSE was a protein-rich extract and the protein content of CSE was 10.86%. Moreover, the well-known ACE inhibitors are amino acid or dipeptide drugs. Therefore, we proposed that there were bioactive peptides responsible for the anti-hypertensive activities of CSE. Proteomics and bioinformatics analyses were further applied to identify the anti-hypertensive bioactive peptides in CSE. Peptides with anti-hypertensive potentials have been determined from corn. For example, dipeptide Ala-Tyr (AY) has been identified from corn gluten meal, a major byproduct of corn wet milling. AY affects the ACE act ...

The next test has as its system ACE. The note with it: cited from earlier work. The source says:
(§4) Food peptides with anti-ACE activities have been identified from plants and animals. For example, oligopeptides FDGIP and AIDPVRA are ACE inhibitor derived from Caulerpa lentillifera. […] Peptides from auto-digested reishi (Ganoderma lingzhi) extract show potent inhibition against ACE and hypotensive activities in SHRs. Lacto-tr ... || CSE was a protein-rich extract and the protein content of CSE was 10.86%. Moreover, the well-known ACE inhibitors are amino acid or dipeptide drugs. Therefore, we proposed that there were bioactive peptides responsible for the anti-hypertensive activities of CSE. Proteomics and bioinformatics analyses were further applied to identify the anti-hypertensive bioactive peptides in CSE. Peptides with anti-hypertensive potentials have been determined from corn. For example, dipeptide Ala-Tyr (AY) has been identified from corn gluten meal, a major byproduct of corn wet milling. AY affects the ACE act ...

Test [6] deals with SHRs. The note with it: SHR, cited from earlier work.
Source text: as §4

Test [7] concerns subjects with blood pressure ranging from normal to mild hypertension. The note with it: intake of tablets containing VPP and IPP; cited from earlier work. The source says:
(§5) Food peptides with anti-ACE activities have been identified from plants and animals. For example, oligopeptides FDGIP and AIDPVRA are ACE inhibitor derived from Caulerpa lentillifera. […] Peptides from auto-digested reishi (Ganoderma lingzhi) extract show potent inhibition against ACE and hypotensive activities in SHRs. Lacto-tr ...

Another test concerns endothelial function. As to conditions: in vitro; cited from earlier work.
Source text: as §5

Setting [8] is: intraperitoneal, 10 μmol/kg, tail-cuff, mean ± standard error, n = 6.

As for `CC(C)C[C@H](NC(=O)[C@H](CC(N)=O)NC(=O)[C@H](CC(=O)O)NC(=O)[C@H](Cc1ccccc1)NC(=O)[C@H](CCCCN)NC(=O)[C@@H](N)CO)C(=O)N[C@@H](Cc1ccc(O)cc1)C(=O)NCC(=O)N[C@@H](CS)C(=O)N[C@@H](CCCNC(=N)N)C(=O)O` [CSBp5] (H-SKFDNLYGCR-OH; N-terminus and C-terminus assumed), on ACE (serum) [1], the “Inhibition of ACE activity, Z-FHL (in words)” value is “inhibited the ACE activity and the inhibition displayed a dose-dependent manner”. Further, the “Changes in diastolic blood pressure (in words)” value in the test on SHRs [2] was “consistent with the changes in SBP”. In test [3] (setting [8]), the “Decrease of SBP, intraperitoneal” value came to 28.33 ± 12.5 mmHg. Besides, the “Decrease of SBP, intraperitoneal (in words)” value in test [3] (intraperitoneal, various dosages, 1 h) is recorded as “decreased SBP levels in a dose-dependent manner”. The “Decrease of SBP, oral” value in [3] (oral, 10 μmol/kg, 1 h, tail-cuff, mean ± standard error, n = 6) turned out to be 36.78 ± 13.25 mmHg. In test [3] (oral, 10 μmol/kg), the “Decrease of SBP at 2 h (time course)” value is listed as around 30 mmHg. The “Duration of SBP decrease (in words)” value in test [3] (oral, 10 μmol/kg, measured at 0, 1, 2, 4 and 6 h) is listed as “persistent during a 6-h measurement”. Moreover, in test [3] (oral, various dosages, 1 h), the “Decrease of SBP, oral (in words)” value was “decreased the SBP levels in a dose-dependent manner”. Besides, on ACE (serum) [4] (H-HL versus Z-FHL hydrolysis), the “Domain preference of ACE inhibition (in words)” value is “a more effective inhibition on the C-domain of ACE”. Moreover, the “Inhibition of ACE activity, H-HL (in words)” value at ACE (serum) [4] (mouse serum ACE, H-HL, various concentrations) was “inhibited the ACE activity and the inhibition displayed a dose-dependent manner”.
Regarding `CC(=O)N[C@@H](CC(=O)O)C(=O)N[C@@H](Cc1ccccc1)P(=O)(O)C[C@@H](C)C(=O)N[C@@H](C)C(N)=O` [RXP407], in the test on ACE N-domain, the “Effect on blood pressure (in words)” value is “no effect on blood pressure”.
Consider `C[C@H](CS)C(=O)N1CCC[C@H]1C(=O)O` [captopril], for which the “Decrease of SBP, intraperitoneal” value in test [3] (setting [8]) turned out to be 52.83±19.06 mmHg. Besides, the “Decrease of SBP at 2 h (time course)” value in [3] (oral, 10 μmol/kg) was “approximately 60 mmHg”. The “SBP level lower than that of the blank group” value in test [3] (oral, 10 mg/kg, SBP at 0 and 1 h, tail-cuff, mean ± standard error, n = 6) was 47.6 ± 4.34 mmHg. In test [5], the “Angiotensin I-induced elevation of blood pressure (in words)” value was “attenuated or abolished”.
With “AIDPVRA [oligopeptide derived from Caulerpa lentillifera]”, the “ACE inhibition (in words)” value in the test on ACE (from Caulerpa lentillifera) is reported as “ACE inhibitor”.
On to Ala-Tyr [AY], for which, in the test with ACE (read-out: IC50, ACE), the IC50 is 14.2 µM. For the same compound, in the test with SHRs [6] (oral, 50 mg/kg, 2 h), the “Maximal reduction of SBP” value was 9.5 mmHg.
Turning to “FDGIP [oligopeptide derived from Caulerpa lentillifera]”, the “ACE inhibition (in words)” value in the test with ACE (from Caulerpa lentillifera) is given as “ACE inhibitor”.
Take “Ile-Pro-Pro [IPP, lacto-tripeptide from sour milk]”: the “ACE inhibition (in words)” value with ACE (sour milk peptides) is on record as “inhibit the ACE activity”. The “Anti-hypertensive effect in SHRs (in words)” value in the test with SHRs [6] was “exhibit anti-hypertensive effects in SHRs”. The “Improvement in hypertension and side effects (in words)” value in test [7] was “mild improvement in hypertension without side effects”. Besides, the “Endothelial function (in words)” value in the test on endothelial function is “protect the endothelial function in vitro”.
Turning to “Met-Ile/Leu-Pro-Pro [tetrapeptide from hydrolyzed zein]”, the “IC50, ACE in vitro” value in the test on ACE is 70.32 µg/mL. Further, the IC50 in the test with ACE (read-out: IC50, ACE in vitro) was 155 µM.
Consider “Val-Pro-Pro [VPP, lacto-tripeptide from sour milk]”, for which the “ACE inhibition (in words)” value in the test on ACE (sour milk peptides) was “inhibit the ACE activity”. Besides, the “Anti-hypertensive effect in SHRs (in words)” value with SHRs [6] is recorded as “exhibit anti-hypertensive effects in SHRs”. The “Improvement in hypertension and side effects (in words)” value in test [7] is given as “mild improvement in hypertension without side effects”. Besides, the “Endothelial function (in words)” value in the test with endothelial function was “protect the endothelial function in vitro”.
